The test system of series [1] is CX-1. Put plainly: soft agar disk diffusion zone of inhibition assay. Format: cell-based, human. The conditions noted are these: 25 ug/disk. From the text:
(§1) The following human tumors were used: Human adenosquamous lung tumor H-125 (7) and colon tumors H8, HCT-116, and CX-1 were used for in vitro testing only. Each human cell line was maintained in culture until plating was done. HCT-116, H8, and CX-1 were maintained in McCoy's media and heat inactivated fetal bovine serum (11% FBS). It was passaged (1:5 dilution) twice week following enzymatic dissociation using a trypsin/PBS-EDTA mixture. H-125 was maintained in CMRL/Fischer media (1:1) with 11% FBS. It was mechanically dissociated and passaged (3:10 dilution) weekly. For the plating assay, all cells were mechanically dispersed and diluted in the CMRL/Fischer. media mixture.

The subject of series [2] is H8. The series is described as follows: soft agar disk diffusion zone of inhibition assay. Format: cell-based, human. The following applies: 25 ug/disk.
From the text: as §1
In general terms: A growth-free zone around the sample is the usual read-out of agar diffusion tests.

Series [3] deals with HIV infected human MOLT-4 cells. Put plainly: differential killing of HIV infected cells. Format: cell-based. The following applies: FIGS. 8 and 9.
For series [4], the system named is human rhinovirus-14. Put plainly: cytopathic effect of rhinovirus in HeLa cells. The following applies: HeLa cells (Wisconsin strain), visually observed. Format: cell-based. How it is done: C. HeLa cells (Wisconsin strain, Berlin, Germany) were contacted with human rhinovirus-14. Infected cells (Wisconsin strain) were visually observed. […] HeLa cells were not killed by any compounds used. Cells of other HeLa lines (eg. ATCC CCL2) were killed. Glaucarubolone, simalikalactone D and chaparrinone were tested on cell killing and virus production by primary blood monocytes. All three drugs were tested at five concentrations (0, 10^−9, 10^−8, 10^−7, and 10^−6 M). Drugs were given at different times pre-infection, given at the time of infection, or were administered at different times post-infection.
(Damage to the host cells serves as the signal in cytopathic effect assays.)

Series [5] relates to NADH oxidase. Put plainly: NADH oxidase activity of soybean hypocotyl plasma membrane vesicles. Format: biochemical. The following applies: plant soybean hypocotyl tissue, FIG. 11.
In series [6] the test system is cabbage, radish, carrot, tomato and sorghum seeds. Put plainly: seed germination. Format: in vivo. How it is done: (§2) To evaluate the growth phenotype of a set of plants, a 1 mg concentration of 100 Mm (solution QD-2). This solution was diluted serially with water with or without Triton X-100, ethanol or DMSO and used directly for measurement of effects on seed germination or applied using a microliter syringe to foliage to evaluate growth effects on plants.
With seed germination, the compound was evaluated against five species: cabbage (Early Jersey Wakefield), radish (Scarlet Turnip White Tipped), carrot (Danvers Half Long), tomato (Rutgers) and sorghum (DeKalb 18). With water dilutions, seed germination of all species was inhibited at 10 μM (an aqueous dilution of 10 μl of 100 Mm 1:1000 in 100 μl of water) (Final DMSO concentration of 1:10,000=0.01%). Germination of tomato was inhibited at 10μ1/100 µl of an aqueous dilution of 1:10,000=1 μM final concentration.

Series [7] concerns Sorghum (DeKalb 18). The series is described as follows: growth of plants in soil after foliar application. Format: in vivo. The conditions noted are these: twenty days after treatment, 10 μl of 1:1000/half pot; control plants 16 cm. How it is done: as §2
Sorghum (DeKalb 18) plants growing in soil were treated as for Arabadopsis thaliani above after 6 days of germination when the plants were about 5 cm high (as the leaf emerged from the coleoptile sheath). Growth was retarded. Twenty days after treatment, control plants were 16 cm high and treated plants were 12 cm high. The application rate was 10 µl of 1:1000/half pot=2.5×10^−3 oz/A.

The test system of series [8] is M17/Adr. The conditions noted are these: multidrug resistant, p-glycoprotein expressing mammary tumor versus leukemia.
For series [9], the system named is porcine pseudorabies virus. The following applies: rabbit kidney cells.
Series [10] has as its system plasma membrane NADH oxidase (tNOX).
In series [11] the test system is Crandall Feline Kidney cells infected with Feline Immunodeficiency Virus (FIV). The series is described as follows: time for complete cell killing, FIV-infected cells.
Series [12] relates to NADH oxidase. Put plainly: NADH oxidase activity of CFK microsomes from infected cells. The following applies: Plasma membrane-free CFK microsomes (Golgi-enriched) from infected cells.

The results in this text go back to patent publication US6573296B2, “Therapeutic quassinoid preparations with antineoplastic, antiviral, and herbistatic activity” (priority 1997, dated 2003).

With `CC1=CC(=O)C(O)C2(C)C1CC1OC(=O)C(O)C3C(C)C(O)C4(O)OCC13C42` (stereo not shown) [Glaucarubolone, glaucarubolone], the “zone of inhibition CX-1” value in [1] was found to be 100 ZONE UNITS. Moreover, the “zone of inhibition H8” value in series [2] is 650 ZONE UNITS. Besides, the “killing of HIV infected MOLT-4 cells compared to uninfected cells” value in series [3] is reported as “differentially killed at two log orders less”. The “cytopathic effect of human rhinovirus-14” value in [4] was “Cytopathic effect was delayed”. Moreover, the “inhibition of NADH oxidation, in words” value in series [5] is “similarly inhibited”; in series [10] (HeLA (ATCC CCL2 strain), FIG. 10) it was “inhibits NADH oxidation”. In addition, the “lowest concentrations at which inhibitions of germination were observed” value in [6] (DMSO and ethanol dilutions 1:10^6 or 1:10^7, solvents themselves retarded germination) is reported as 10-100 Nm. Further, the “concentration at which seed germination was inhibited” value in series [6] (all five species, water dilutions) was 10 µM; in [6] (tomato, aqueous dilution 1:10,000), 1 µM. The “height of treated plants” value in series [7] is 12 cm. The “differential / selectivity for M17/Adr (Mam 17/Adr)” value in series [8] is listed as “demonstrated selectivity”. Also, the “cytopathic effect on non-infected treated control cells” value in series [9] (non-infected) is “no cytopathic affect”. In series [9] (visually monitored), the “cytopathic effect of porcine pseudorabies virus” value is listed as “inhibited cytopathic effect”. Also, the “effect of redox poise on inhibition of NADH oxidase activity” value in series [10] (HeLa cell plasma membranes, FIG. 12) was “affected little by redox poise”. The “Time for complete cell killing (>98%), FIV-Infected” value in series [11] (3 × 10^−4 M), in series [11] (3 × 10^−5 M), in series [11] (3 × 10^−6 M), in series [11] (3 × 10^−7 M), in series [11] (3 × 10^−8 M) and in series [11] (3 × 10^−9 M) was >168 h throughout. In addition, the “killing of FIV-infected compared to non-infected CFK cells” value in series [11] (FIGS. 6 and 7, Table 3) is reported as “differential killing of infected cells”. The “ED50, inhibition of NADH oxidase activity” value in [12] is on record as >10^−8 M.
